Measured values: patent US20210403864A1, “METHODS AND COMPOSITIONS FOR TREATING ACTIVATED G-ALPHA Q MUTANT CANCERS OR MELANOCYTIC MALIGNANCIES” (Memorial Sloan Kettering Cancer Center, priority 2018, published 2021)
Changes are numbered by the printed parent chain.

Columns and labels:
GNAQ^Q209L = molecular target: T1, GNAQ^Q209L (Homo sapiens, UniProt P50148, Q209L); assay: IP1 accumulation assay in mutation dependent melan-a cells; format: cell-based, mouse
T1 construct: host or cells: melan-a (immortalized mouse melanocytes), retroviral transduction with MSCV-Puro
T1 sequence (P50148 1-359 Q209L): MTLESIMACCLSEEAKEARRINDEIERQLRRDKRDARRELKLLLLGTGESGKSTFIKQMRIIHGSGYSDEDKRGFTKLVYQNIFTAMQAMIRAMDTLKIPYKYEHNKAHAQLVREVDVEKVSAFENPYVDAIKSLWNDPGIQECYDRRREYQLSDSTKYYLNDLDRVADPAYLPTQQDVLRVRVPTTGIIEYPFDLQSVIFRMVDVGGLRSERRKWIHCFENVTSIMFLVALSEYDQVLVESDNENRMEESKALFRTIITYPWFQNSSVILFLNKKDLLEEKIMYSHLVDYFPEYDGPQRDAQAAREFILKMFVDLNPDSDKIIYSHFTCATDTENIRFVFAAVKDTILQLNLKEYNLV
Method: (§1) Cells were treated with increasing concentrations of YM-254890 (YM) for 3 hours (top) and 24 hours (bottom). Error bars, s.e.m. from three biological replicates, each with three technical replicates.
(§2) Cell Culture and in vitro analysis. Mutation dependent melan-a cells were generated by transducing cells with cDNAs in MSCV-PURO (retrovirus) and then selecting cells with puromycin (1 μg/ml) for two days. TPA (Sigma-Aldrich, St. Louis, Mo.) was then withdrawn from cultures. Cells with activating mutations (CYSLTR2^L129Q, GNAQ^G48V/R183Q/Q209L, KRAS^G12V, and BRAF^V600E) continued to proliferate over several passages (>2 weeks) and were then validated with qRT-PCR and immunoblots. Vector and WT controls were unable to maintain proliferation after a couple passages upon TPA withdrawal. All cells were cultured in media containing 10% FBS, L-glutamine ([…]), penicillin (100 U/ml), streptomycin (100 μg/ml). Melan-a cells provided by D. Bennett, St. George's Hospital, University of London (Johnson C P, et al., PLoS One. 12(6):1-17 (2017)), were cultured in RPMI supplemented with 200 nM TPA unless otherwise noted. HEK293T (from ATCC, Manassas, Va.) cells were cultured in DMEM-Q and UVM cells were cultured in RPMI. All cells tested negative for mycoplasma. Cell growth assays and YM dose response curves were assayed using CellTiter-glo 2.0 (Promega, Madison, Wis.) at given time points or after five days of incubation with YM and readout on a Glomax Luminometer (Promega, Madison, Wis.). IC50 values were calculated using Prism 7.0 software. Growth assays were compared to day 1 readings and dose response curves were compared to vehicle. Data shown is representative of at least three independent experiments with at least three technical replicates. Dose-response curves and growth assays were analyzed using GraphPad Prism 7.0 software.
(§3) IP1 Accumulation Assay. IP1 concentrations in GNAQ-transfected HEK293T cells, GNAQ-expressing melan-a cells and uveal melanoma cells was measured using a competitive homogenous time resolved fluorescence (HTRF) assay (CisBio, Bedford, Mass.). Briefly, 9,000 transiently transfected-HEK293T cells, 5,000 melan-a cells and 5,000 uveal melanoma cells were seeded in low-volume 384-well plates in 7 μL media for 24 hours prior YM-254890 treatment. Cells were then treated with various concentrations of YM-254890 diluted in the appropriate media at 37° C. for 3 hours or 24 hours. 1 h prior lysis, cells were supplemented with 1× Stimulation Buffer provided by the manufacturer (HEPES 10 mM, CaCl2) 1 mM, MgCl2 0.5 mM, KCl 4.2 mM, NaCl 146 mM, glucose 5.5 mM, LiCl 50 mM, pH 7.4) with 0.2% BSA and 50 mM of LiCl (to prevent IP1 degradation). Following incubation, cells were lysed by adding 3 μL/well of d2-labeled IP1 analogue as the fluorescence acceptor and the Terbium cryptate-labeled anti-IP1 mAb as the fluorescence donor, diluted in the kit-supplied lysis buffer. The plates were incubated overnight at RT and time-resolved fluorescence signals were read using the BioTek Synergy NEO plate reader (BioTek Instruments, Winooski, Vt.) at 620 nm and […]. Results were calculated as a 665 nm/620 nm signal ratio, and IP1 concentrations were interpolated from a standard curve prepared using the supplied IP1 calibrator. Results are shown as IP1 (nM). Dose-response curves and bar graphs were analyzed using GraphPad Prism 7.0 software.

CYSLTR2^L129Q = assay: as above; format: cell-based, mouse; conditions: 24-hour treatment
Method: as §1, §2, §3

GNAQ^G48V = molecular target: T2, GNAQ^G48V (Homo sapiens, UniProt P50148, G48V); assay: as above; format: cell-based, mouse
T2 construct: host or cells: melan-a (immortalized mouse melanocytes), retroviral transduction with MSCV-Puro
T2 sequence (P50148 1-359 G48V): T1 sequence (P50148 1-359 Q209L) with G48V, L209Q
Method: as §1, §2, §3

Mel290 cells = assay: Cell proliferation dose response, CellTiter-glo 2.0; format: cell-based, human; conditions: 5 days, UVM line lacking GNAQ/11 mutations
Method: (§4) Data are expressed as the percentage RLU relative to that observed with vehicle. Error bars, s.e.m. from triplicate samples.
as §2

[1] = test system: SK-MEL-2 cells (NRAS^Q61R); assay: as above; format: cell-based, human; conditions: 5 days
Method: as §4, §2

[2] = test system: A375 cells (BRAF^V600E cutaneous melanoma); assay: as above; format: cell-based, human; conditions: 5 days
Method: as §4, §2

OMM1.3 cells = assay: as above; format: cell-based, human; conditions: 5 days, approximate
Method: as §4, §2

Mel270 cells = assay: as above; format: cell-based, human; conditions: 5 days, approximate
Method: as §4, §2

Mel202 cells = assay: as above; format: cell-based, human; conditions: 5 days, approximate
Method: as §4, §2

Mel285 cells = assay: as above; format: cell-based, human; conditions: 5 days, UVM line lacking GNAQ/11 mutations
Method: as §4, §2

A549 cells (KRAS^G12S) = assay: as above; format: cell-based, human; conditions: 5 days
Method: as §4, §2

For YM-254890, the “fold less sensitive than CYSLTR2^L129Q and GNAQ^G48V mutants (IP1 accumulation)” value (GNAQ^Q209L; 24-hour treatment) was “approximately 10 fold”, the “inhibition of IP1 accumulation” value (GNAQ^Q209L; 24-hour treatment) was “completely inhibited” and the “sensitivity of IP1 accumulation after 3 hours versus 24 hours” value (GNAQ^Q209L; 3 hours of treatment) was “less sensitive”. The “inhibition of IP1 accumulation” value (GNAQ^Q209L; 3 hours of treatment, even at high doses of YM) was “only partially inhibited”, the “inhibition of IP1 accumulation” value (CYSLTR2^L129Q) was “completely inhibited” and the “relative sensitivity to YM (IP1 accumulation)” value (CYSLTR2^L129Q) was “most sensitive”. For the same substance, the “inhibition of IP1 accumulation” value (GNAQ^G48V; 24-hour treatment) was “completely inhibited”, the “relative sensitivity to YM (IP1 accumulation)” value (GNAQ^G48V; 24-hour treatment) was “most sensitive” and the “sensitivity of IP1 accumulation after 3 hours versus 24 hours” value (GNAQ^G48V; 3 hours of treatment) was “less sensitive”. The “sensitivity of proliferation to YM” value (Mel290 cells) was “resistant”, the “sensitivity of proliferation to YM” value [1] was “resistant” and the “sensitivity of proliferation to YM” value [2] was “resistant”. For the same substance, the IC50 (OMM1.3 cells) was roughly 100 nM, the IC50 (Mel270 cells) was roughly 100 nM and the IC50 (Mel202 cells) was roughly 100 nM. For the same substance, the “sensitivity of proliferation to YM” value (Mel285 cells) was “resistant” and the “sensitivity of proliferation to YM” value (A549 cells (KRAS^G12S)) was “resistant”.
